For assay [1], the target named is T1, human recombinant HDAC1 (Homo sapiens, UniProt Q13547).
T1 construct: purchased Enzo Life Sciences, Inc. BML-SE456
Kind of assay: In vitro HDAC enzyme activity inhibition assay (HDAC1). It is filed as biochemical. The conditions noted are these: Fluor de Lys-SIRT1 substrate 10 μM, 30° C., 60 minutes, fluorescence. A digest of the protocol:
(§1)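 Fluorimetric deacetylase kit: human recombinant HDAC1 or HDAC6 (0.3 μg) with 10 μM Fluor de Lys-SIRT1 substrate and 5-fold diluted compounds, 60 min at 30° C. Developer added for 30 min, fluorescence read at Ex 360/Em 460, IC50 calculated.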

Assay [2] has as its target T2, human recombinant HDAC6 (Homo sapiens, UniProt Q9UBN7).
T2 construct: purchased Calbiochem Inc. 382180
T2 sequence (Q9UBN7 1-1215): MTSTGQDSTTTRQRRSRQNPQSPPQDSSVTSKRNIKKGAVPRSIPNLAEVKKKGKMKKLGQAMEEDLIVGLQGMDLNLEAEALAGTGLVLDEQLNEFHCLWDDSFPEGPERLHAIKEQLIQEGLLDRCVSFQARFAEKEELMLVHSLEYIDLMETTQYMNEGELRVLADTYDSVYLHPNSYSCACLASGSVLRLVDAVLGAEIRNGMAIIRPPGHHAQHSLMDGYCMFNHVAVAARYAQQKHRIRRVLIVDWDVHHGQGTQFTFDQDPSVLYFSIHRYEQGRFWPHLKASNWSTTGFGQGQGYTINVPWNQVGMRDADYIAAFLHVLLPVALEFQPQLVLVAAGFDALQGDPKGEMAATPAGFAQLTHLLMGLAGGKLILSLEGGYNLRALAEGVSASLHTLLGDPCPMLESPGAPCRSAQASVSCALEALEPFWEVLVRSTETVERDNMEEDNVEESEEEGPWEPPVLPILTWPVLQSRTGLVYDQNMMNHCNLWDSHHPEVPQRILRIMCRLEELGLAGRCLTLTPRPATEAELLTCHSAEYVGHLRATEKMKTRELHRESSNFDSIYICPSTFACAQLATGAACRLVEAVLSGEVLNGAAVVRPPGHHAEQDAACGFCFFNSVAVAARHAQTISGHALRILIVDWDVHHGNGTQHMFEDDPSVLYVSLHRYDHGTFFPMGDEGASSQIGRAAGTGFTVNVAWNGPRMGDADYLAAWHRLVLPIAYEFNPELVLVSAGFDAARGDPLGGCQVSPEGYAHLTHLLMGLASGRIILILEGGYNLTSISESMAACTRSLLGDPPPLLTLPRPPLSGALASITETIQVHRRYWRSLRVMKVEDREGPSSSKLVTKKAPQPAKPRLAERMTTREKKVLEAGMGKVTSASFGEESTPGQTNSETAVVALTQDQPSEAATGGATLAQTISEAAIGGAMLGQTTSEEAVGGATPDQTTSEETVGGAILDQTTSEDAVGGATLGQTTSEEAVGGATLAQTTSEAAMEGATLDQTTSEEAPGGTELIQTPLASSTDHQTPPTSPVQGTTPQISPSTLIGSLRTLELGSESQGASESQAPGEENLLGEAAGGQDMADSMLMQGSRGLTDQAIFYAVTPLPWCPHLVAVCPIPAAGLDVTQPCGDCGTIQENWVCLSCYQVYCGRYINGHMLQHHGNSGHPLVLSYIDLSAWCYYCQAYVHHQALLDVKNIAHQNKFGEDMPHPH
Description: In vitro HDAC enzyme activity inhibition assay (HDAC6). It is filed as biochemical. The conditions noted are these: for HDAC6 selectivity (fold): HDAC6 over HDAC1; for IC50: same protocol as the HDAC1 test, human recombinant HDAC6 (Calbiochem). Summed up:
as §1

The text below walks through data of US12466827B2, “1,3,4-oxadiazole derivative compounds as histone deacetylase 6 inhibitor, and the pharmaceutical composition comprising the same” (CHONG KUN DANG PHARMACEUTICAL CORP., priority 2020, dated 2025).

T1 sequence (Q13547 whole entry): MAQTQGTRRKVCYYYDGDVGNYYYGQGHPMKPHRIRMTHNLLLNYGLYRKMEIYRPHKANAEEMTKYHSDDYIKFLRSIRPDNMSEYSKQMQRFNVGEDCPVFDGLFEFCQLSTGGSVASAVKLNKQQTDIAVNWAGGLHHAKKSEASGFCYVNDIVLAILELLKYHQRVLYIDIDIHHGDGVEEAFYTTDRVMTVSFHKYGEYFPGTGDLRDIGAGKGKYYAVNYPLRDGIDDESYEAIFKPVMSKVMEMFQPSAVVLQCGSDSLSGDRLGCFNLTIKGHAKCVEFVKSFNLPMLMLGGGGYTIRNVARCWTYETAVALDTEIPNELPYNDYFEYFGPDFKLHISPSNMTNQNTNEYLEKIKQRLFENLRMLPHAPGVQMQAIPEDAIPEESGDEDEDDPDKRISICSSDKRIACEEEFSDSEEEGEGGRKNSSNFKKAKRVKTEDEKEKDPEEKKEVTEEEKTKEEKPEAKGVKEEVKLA

For the compound `CCC(=O)N1CCN(S(=O)(=O)N(Cc2cn3ccc(-c4nnc(C(F)F)o4)cc3n2)c2ccccc2)CC1` [Compound 4266, N-((7-(5-(difluoromethyl)-1,3,4-oxadiazol-2-yl)imidazo[1,2-a]pyridin-2-yl)methyl)-N-phenyl-4-propionylpiperazine-1-sulfonamide], in assay [1], the IC50 (in general, the concentration needed to halve the response being measured) is greater than 50000 nM. For the same compound, in assay [2], the “HDAC6 selectivity (fold)” value was 431 fold and the IC50 turned out to be 116 nM.

For `O=C(CO)N1CCN(S(=O)(=O)N(Cc2cn3ccc(-c4nnc(C(F)F)o4)cc3n2)c2ccccc2)CC1` [Compound 4267, N-((7-(5-(difluoromethyl)-1,3,4-oxadiazol-2-yl)imidazo[1,2-a]pyridin-2-yl)methyl)-4-(2-hydroxyacetyl)-N-phenylpiperazine-1-sulfonamide], the IC50 in assay [1] is greater than 50000 nM. Further, in assay [2], the “HDAC6 selectivity (fold)” value is on record as 524 fold and the IC50 turned out to be 95.5 nM.

Consider `O=C(C1CCC1)N1CCN(S(=O)(=O)N(Cc2cn3ccc(-c4nnc(C(F)F)o4)cc3n2)c2ccccc2)CC1` [Compound 4268, 4-(cyclobutanecarbonyl)-N-((7-(5-(difluoromethyl)-1,3,4-oxadiazol-2-yl)imidazo[1,2-a]pyridine-2-yl)methyl)-N-phenylpiperazine-1-sulfonamide], for which the IC50 in assay [1] is greater than 50000 nM. For the same compound, in assay [2], the “HDAC6 selectivity (fold)” value is 389 fold and the concentration for half-maximal inhibition (IC50) turned out to be 129 nM.

For the compound `O=C(C1COC1)N1CCN(S(=O)(=O)N(Cc2cn3ccc(-c4nnc(C(F)F)o4)cc3n2)c2ccccc2)CC1` [Compound 4269, N-((7-(5-(difluoromethyl)-1,3,4-oxadiazol-2-yl)imidazo[1,2-a]pyridin-2-yl)methyl)-4-(oxetan-3-carbonyl)-N-phenylpiperazine-1-sulfonamide], the values for the IC50 in assay [1] and in assay [2] were greater than 50000 nM and 193 nM, respectively. Moreover, in assay [2], the “HDAC6 selectivity (fold)” value is reported as 259 fold.

Consider `O=C(N1CCN(S(=O)(=O)N(Cc2cn3ccc(-c4nnc(C(F)F)o4)cc3n2)c2ccccc2)CC1)C(F)(F)F` [Compound 4270, N-((7-(5-(difluoromethyl)-1,3,4-oxadiazol-2-yl)imidazo[1,2-a]pyridin-2-yl)methyl)-N-phenyl-4-(2,2,2-trifluoroacetyl)piperazine-1-sulfonamide], for which the IC50 in assay [1] was greater than 50000 nM. For the same compound, in assay [2], the “HDAC6 selectivity (fold)” value was 327 fold and the IC50 came out at 153 nM.

For the compound `CS(=O)(=O)N1CCN(S(=O)(=O)N(Cc2cn3ccc(-c4nnc(C(F)F)o4)cc3n2)c2ccccc2)CC1` [Compound 4271, N-((7-(5-(difluoromethyl)-1,3,4-oxadiazol-2-yl)imidazo[1,2-a]pyridin-2-yl)methyl)-4-(methylsulfonyl)-N-phenylpiperazine-1-sulfonamide], the IC50 is greater than 50000 nM in assay [1] and 232 nM in assay [2]. For the same compound, the “HDAC6 selectivity (fold)” value in assay [2] is recorded as 215 fold.

Turning to `COC(=O)N1CCN(S(=O)(=O)N(Cc2cn3ccc(-c4nnc(C(F)F)o4)cc3n2)c2ccccc2)CC1` [Compound 4272, methyl 4-(N-((7-(5-(difluoromethyl)-1,3,4-oxadiazol-2-yl)imidazo[1,2-a]pyridin-2-yl)methyl)-N-phenylsulfamoyl)piperazine-1-carboxylate], the IC50 in assay [1] is greater than 50000 nM. Also, in assay [2], the “HDAC6 selectivity (fold)” value amounted to 298 fold and the IC50 is 168 nM.

In the case of `CN(C)C(=O)N1CCN(S(=O)(=O)N(Cc2cn3ccc(-c4nnc(C(F)F)o4)cc3n2)c2ccccc2)CC1` [Compound 4273, 4—(N-((7-(5-(difluoromethyl)-1,3,4-oxadiazol-2-yl)imidazo[1,2-a]pyridin-2-yl)methyl)-N-phenylsulfamoyl)-N, N-dimethylpiperazine-1-carboxamide], the IC50 in assay [1] was greater than 50000 nM. In assay [2], the “HDAC6 selectivity (fold)” value amounted to 413 fold and the IC50 was found to be 121 nM.

For `O=S(=O)(N1CCN(c2ccccn2)CC1)N(Cc1cn2ccc(-c3nnc(C(F)F)o3)cc2n1)c1ccccc1` [Compound 4274, N-((7-(5-(difluoromethyl)-1,3,4-oxadiazol-2-yl)imidazo[1,2-a]pyridin-2-yl)methyl)-N-phenyl-4-(pyridin-2-yl)piperazine-1-sulfonamide], the concentration for half-maximal inhibition (IC50) in assay [1] was greater than 50000 nM; in assay [2], 150 nM. Besides, the “HDAC6 selectivity (fold)” value in assay [2] worked out at 333 fold.

Consider `O=S(=O)(N1CCN(c2ncccn2)CC1)N(Cc1cn2ccc(-c3nnc(C(F)F)o3)cc2n1)c1ccccc1` [Compound 4275, N-((7-(5-(difluoromethyl)-1,3,4-oxadiazol-2-yl)imidazo[1,2-a]pyridin-2-yl)methyl)-N-phenyl-4-(pyrimidin-2-yl)piperazine-1-sulfonamide], for which the IC50 is greater than 50000 nM in assay [1] and 142 nM in assay [2]. Besides, the “HDAC6 selectivity (fold)” value in assay [2] came out at 351 fold.

As to `CN1CCN(S(=O)(=O)N(Cc2cn3ccc(-c4nnc(C(F)F)o4)cc3n2)c2cccc(F)c2)CC1` [Compound 4297, N-((7-(5-(difluoromethyl)-1,3,4-oxadiazol-2-yl)imidazo[1,2-a]pyridin-2-yl)methyl)-N-(3-fluorophenyl)-4-methylpiperazine-1-sulfonamide], the IC50 in assay [1] was greater than 50000 nM; in assay [2], 89.2 nM. In addition, the “HDAC6 selectivity (fold)” value in assay [2] worked out at 561 fold.

Turning to `CCN1CCN(S(=O)(=O)N(Cc2cn3ccc(-c4nnc(C(F)F)o4)cc3n2)c2cccc(F)c2)CC1` [Compound 4298, N-((7-(5-(difluoromethyl)-1,3,4-oxadiazol-2-yl)imidazo[1,2-a]pyridin-2-yl)methyl)-4-ethyl-N-(3-fluorophenyl)-piperazine-1-sulfonamide], the IC50 in assay [1] is greater than 50000 nM. In assay [2], the “HDAC6 selectivity (fold)” value is 631 fold and the IC50 came to 79.2 nM.

In the case of `CC(C)N1CCN(S(=O)(=O)N(Cc2cn3ccc(-c4nnc(C(F)F)o4)cc3n2)c2cccc(F)c2)CC1` [Compound 4299, N-((7-(5-(difluoromethyl)-1,3,4-oxadiazol-2-yl)imidazo[1,2-a]pyridin-2-yl)methyl)-N-(3-fluorophenyl)-4-isopropylpiperazine-1-sulfonamide], the IC50 in assay [1] is greater than 50000 nM. Further, in assay [2], the “HDAC6 selectivity (fold)” value was found to be 488 fold and the IC50 came out at 102 nM.

Turning to `CC(CO)N1CCN(S(=O)(=O)N(Cc2cn3ccc(-c4nnc(C(F)F)o4)cc3n2)c2cccc(F)c2)CC1` (stereo not drawn) [Compound 4300, N-((7-(5-(difluoromethyl)-1,3,4-oxadiazol-2-yl)imidazo[1,2-a]pyridin-2-yl)methyl)-N-(3-fluorophenyl)-4-(1-hydroxypropan-2-yl)piperazine-1-sulfonamide], the 50% inhibitory concentration (IC50) in assay [1] is greater than 50000 nM. Moreover, in assay [2], the “HDAC6 selectivity (fold)” value was 410 fold and the half-maximal inhibitory concentration (IC50) is 122 nM.

Consider `O=S(=O)(N1CCN(C2CCC2)CC1)N(Cc1cn2ccc(-c3nnc(C(F)F)o3)cc2n1)c1cccc(F)c1` [Compound 4301, 4-cyclobutyl-N-((7-(5-(difluoromethyl)-1,3,4-oxadiazol-2-yl)imidazo[1,2-a]pyridin-2-yl)methyl)-N-(3-fluorophenyl)piperazine-1-sulfonamide], for which the IC50 was greater than 50000 nM in assay [1] and 84.1 nM in assay [2]. For the same compound, in assay [2], the “HDAC6 selectivity (fold)” value was 595 fold.

For `O=S(=O)(N1CCN(C2COC2)CC1)N(Cc1cn2ccc(-c3nnc(C(F)F)o3)cc2n1)c1cccc(F)c1` [Compound 4302], the concentration for half-maximal inhibition (IC50) is greater than 50000 nM in assay [1] and 67.8 nM in assay [2]. In addition, the “HDAC6 selectivity (fold)” value in assay [2] is on record as 737 fold.
